PubChem BioAssay (NCI)
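Cells were grown in 96-well plates and exposed to each compound for 48 hours at five concentrations; endpoints were interpolated linearly between bracketing concentrations, or set to the highest concentration if not reached. GI50 is the concentration that inhibits growth by half. TGI: total growth inhibition.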

Key:
Test in all cases: growth of human tumour cells (NCI), 48 h
SF-539 CNS = system: SF-539 CNS
HS 578T breast = system: HS 578T breast
NCI-H226 lung = system: NCI-H226 lung
MDA-MB-231 breast = system: MDA-MB-231 breast
ACHN renal = system: ACHN renal
SR leukemia = system: SR leukemia
SK-MEL-2 melanoma = system: SK-MEL-2 melanoma
HCT-15 colon = system: HCT-15 colon
M14 melanoma = system: M14 melanoma
SK-MEL-5 melanoma = system: SK-MEL-5 melanoma
OVCAR-8 ovarian = system: OVCAR-8 ovarian
OVCAR-5 ovarian = system: OVCAR-5 ovarian
HL-60(TB) leukemia = system: HL-60(TB) leukemia
HT29 colon = system: HT29 colon
COLO 205 colon = system: COLO 205 colon
NCI-H522 lung = system: NCI-H522 lung
KM12 colon = system: KM12 colon
HCT-116 colon = system: HCT-116 colon
HCC-2998 colon = system: HCC-2998 colon
SNB-75 CNS = system: SNB-75 CNS
EKVX NSCLC = system: EKVX NSCLC
SF-295 CNS = system: SF-295 CNS
NCI-H460 lung = system: NCI-H460 lung
SK-OV-3 ovarian = system: SK-OV-3 ovarian
HOP-92 NSCLC = system: HOP-92 NSCLC
CCRF-CEM leukemia = system: CCRF-CEM leukemia
SNB-19 CNS = system: SNB-19 CNS
TK-10 renal = system: TK-10 renal
MOLT-4 leukemia = system: MOLT-4 leukemia
NCI/ADR-RES ovarian = system: NCI/ADR-RES ovarian
MCF7 breast = system: MCF7 breast
IGROV1 ovarian = system: IGROV1 ovarian
SK-MEL-28 melanoma = system: SK-MEL-28 melanoma
SW-620 colon = system: SW-620 colon
786-0 renal = system: 786-0 renal
DU-145 prostate = system: DU-145 prostate
NCI-H23 lung = system: NCI-H23 lung
SN12C renal = system: SN12C renal
RPMI-8226 leukemia = system: RPMI-8226 leukemia
T-47D breast = system: T-47D breast
PC-3 prostate = system: PC-3 prostate
LOX IMVI melanoma = system: LOX IMVI melanoma
A498 renal = system: A498 renal
BT-549 breast = system: BT-549 breast
U251 CNS = system: U251 CNS
OVCAR-4 ovarian = system: OVCAR-4 ovarian
SF-268 CNS = system: SF-268 CNS
HOP-62 NSCLC = system: HOP-62 NSCLC
UACC-257 melanoma = system: UACC-257 melanoma
UACC-62 melanoma = system: UACC-62 melanoma
K-562 leukemia = system: K-562 leukemia

## COc1cc(-c2nc3ccccc3s2)ccc1OCCCCCOc1cc2c(cc1OC)C(=O)N1CCC[C@H]1C=N2
SF-539 CNS
  GI50: 0.0864 µM
  TGI: 0.286 µM
HS 578T breast
  GI50: 0.219 µM
  TGI: 0.6 µM
NCI-H226 lung
  GI50: 0.212 µM
  TGI: 0.528 µM
MDA-MB-231 breast
  GI50: 0.145 µM
  TGI: 1.97 µM
ACHN renal
  GI50: 0.0535 µM
  TGI: 0.398 µM
SR leukemia
  GI50: < 0.0132 µM
SK-MEL-2 melanoma
  GI50: 0.201 µM
  TGI: 0.463 µM
HCT-15 colon
  GI50: 0.284 µM
  TGI: 6.02 µM
M14 melanoma
  GI50: 0.0762 µM
  TGI: 0.257 µM
SK-MEL-5 melanoma
  GI50: 0.059 µM
  TGI: 0.135 µM
OVCAR-8 ovarian
  GI50: 0.168 µM
  TGI: > 69.8 µM
OVCAR-5 ovarian
  GI50: 0.154 µM
  TGI: 7.87 µM
HL-60(TB) leukemia
  GI50: 0.0757 µM
  TGI: 0.699 µM
HT29 colon
  GI50: 0.0837 µM
  TGI: 4.27 µM
COLO 205 colon
  GI50: 0.0992 µM
  TGI: 0.332 µM
NCI-H522 lung
  GI50: 0.0974 µM
  TGI: 1.14 µM
KM12 colon
  GI50: 0.206 µM
  TGI: 1.6 µM
HCT-116 colon
  GI50: 0.0387 µM
  TGI: 10.1 µM
HCC-2998 colon
  GI50: 0.125 µM
  TGI: 0.3 µM
SNB-75 CNS
  GI50: 0.191 µM
  TGI: 0.779 µM
EKVX NSCLC
  GI50: 0.364 µM
  TGI: 0.953 µM
SF-295 CNS
  GI50: 0.14 µM
  TGI: > 63.3 µM
NCI-H460 lung
  GI50: 0.0768 µM
  TGI: 2.06 µM
SK-OV-3 ovarian
  GI50: 0.177 µM
  TGI: 0.674 µM
HOP-92 NSCLC
  GI50: 0.1 µM
  TGI: 0.397 µM
CCRF-CEM leukemia
  GI50: 0.0275 µM
  TGI: 2.16 µM
SNB-19 CNS
  GI50: 0.213 µM
  TGI: 4.61 µM
TK-10 renal
  GI50: 0.334 µM
  TGI: 14.1 µM
MOLT-4 leukemia
  GI50: 0.0413 µM
  TGI: 2.27 µM
NCI/ADR-RES ovarian
  GI50: 0.376 µM
  TGI: 4.76 µM
MCF7 breast
  GI50: 0.0324 µM
  TGI: 0.701 µM
IGROV1 ovarian
  GI50: 0.244 µM
SK-MEL-28 melanoma
  GI50: 0.255 µM
SW-620 colon
  GI50: 0.0912 µM
  TGI: 1.03 µM
786-0 renal
  GI50: 0.0843 µM
  TGI: 0.38 µM
DU-145 prostate
  GI50: 0.104 µM
  TGI: 5.31 µM
NCI-H23 lung
  GI50: 0.114 µM
  TGI: 0.365 µM
SN12C renal
  GI50: 0.256 µM
  TGI: 4.54 µM
RPMI-8226 leukemia
  GI50: 0.0972 µM
  TGI: 0.424 µM
T-47D breast
  GI50: 0.0407 µM
  TGI: 0.16 µM
PC-3 prostate
  GI50: 0.103 µM
  TGI: 0.665 µM
LOX IMVI melanoma
  GI50: 0.129 µM
  TGI: 7.97 µM
A498 renal
  GI50: 0.199 µM
  TGI: 0.358 µM
BT-549 breast
  GI50: 0.0457 µM
  TGI: 0.126 µM
U251 CNS
  GI50: 0.0632 µM
  TGI: 7.14 µM
OVCAR-4 ovarian
  GI50: 0.264 µM
SF-268 CNS
  GI50: 0.305 µM
  TGI: 3.53 µM
HOP-62 NSCLC
  GI50: 0.0851 µM
  TGI: 0.95 µM
UACC-257 melanoma
  GI50: 0.253 µM
  TGI: 1.17 µM
UACC-62 melanoma
  GI50: 0.114 µM
  TGI: 0.265 µM
K-562 leukemia
  GI50: 0.0321 µM
  TGI: 2.23 µM
